Assay results as given in patent US11377444B2, “Pyridopyrimidine compounds acting as mTORC 1/2 dual inhibitors” (MEDSHINE DISCOVERY INC., priority 2017, dated 2022).
Where two headings read alike, the source gives them in different places.

Tests used:
[1] = test system: MCF-7 cell; assay: Cell proliferation inhibitory activity (Cell-Titer-Glo), MCF-7; assay type: cell-based; conditions: Homo sapiens, MCF7, 72 h; 3 days incubation
Excerpt: (§1) Experimental Embodiment 2: Evaluation of Cell Proliferation Inhibitory Activity
(§2) Experiment objective: To detect cell proliferation inhibitory activity of the tested compounds.
(§3) Experimental principle: The luciferase in the Cell-Titer-Glo reagent produces oxyluciferin using luciferin, oxygen and ATP as reaction substrates, and releases energy in the form of light. Since the reaction of luciferase requires ATP, the total amount of light generated by the reaction is proportional to the total amount of ATP that reflects cell viability.
(§4) Cell lines: MCF-7 cell line […], HT-29 cell line (ATCC-HTB-38), OE21 (ECACC-96062201), NCI-N87 cell line (ATCC-CRL-5822)
(§5) Cell culture medium: (RPMI 1640 culture medium (Invitrogen #1868546; 10% serum Invitrogen #1804958; L-glutamine 1×, Invitrogen #1830863; dual antibiotic Hyclone #J170012))
(§6) Cell Titer-Glo® Luminescent Cell Viability Assay Kit (Promega #G7573)
(§7) The cells were inoculated in a 384- or 96-well plate with a density of 1000 cells per well and 25 μL per well according to the instructions of the cell inoculating plate. The edge wells were not inoculated with cells, and was supplemented with […].
(§8) (i) The mother solution of the compound was 10 mM, and diluted with DMSO to an initial concentration of 4 mM. The compound was added to the compound mother solution, 9 μL per well.
(§9) (ii) The compound was diluted with ECHO liquid-handling workstation. Each well of the cell plate was added with 125 nL compound. Each well of the cell wells in 2nd column and 23rd column was added with 125 nL DMSO, and each of the PBS wells in 1st column and 24th column was added with 125 nL DMSO.
(§10) (iii) Each well of the cell plate was supplemented with 25 μL culture medium, the final volume in each well of the cell plate was 50 μL, […] 3 times dilution, 10 concentrations, each concentration was duplicated in left and right wells, the final DMSO concentration was 0.25%.
(§11) 2.3. After addition of the compound, centrifugation was performed at 1000 rpm for 1 min, and the cell plate was placed in a 37° C., 5% CO2 incubator for 3 days.
(§12) The cell plate was taken out from the incubator and equilibrated at room temperature for 30 minutes. 25 μL Cell-Titer-Glo reagent was added to each well, shaken for one minute to mix thoroughly, centrifuged at 1000 rpm for 1 minute. After 10 minutes, the plate was read on PerkinElmer Envision with a […] reading time was set at 0.2 second.

[2] = test system: HT-29 cell; assay: Cell proliferation inhibitory activity (Cell-Titer-Glo), HT-29; assay type: cell-based; conditions: Homo sapiens, HT-29, 72 h, 3 days incubation
Excerpt: as §1, §2, §3, §4, §5, §6, §7, §8, §9, §10, §11, §12

[3] = test system: OE21 cell; assay: Cell proliferation inhibitory activity (Cell-Titer-Glo), OE21; assay type: cell-based; conditions: OE21, 72 h; 3 days incubation
Excerpt: as §1, §2, §3, §4, §5, §6, §7, §8, §9, §10, §11, §12

[4] = test system: N87 cell; assay: Cell proliferation inhibitory activity (Cell-Titer-Glo), N87; assay type: cell-based; conditions: 72 h; 3 days incubation
Excerpt: as §1, §2, §3, §4, §5, §6, §7, §8, §9, §10, §11, §12

[5] = target: T1, mTOR kinase (mTORC1 and mTORC2 kinase complex) (Homo sapiens, UniProt P42345); assay: In vitro evaluation of mTOR kinase inhibitory activity (DiscoverX ligand-bead competition binding, qPCR readout)
T1 construct: purchased DiscoverX; host or cells: HEK-293
Protocol: Experimental Embodiment 1: In Vitro Evaluation of mTOR Kinase Inhibitory Activity This experiment was performed by DiscoverX. All materials and methods were obtained from DiscoverX.
Kinase activity analysis.
1. Labeled mTOR kinase was stably expressed in HEK-293 cells.
2. Streptavidin magnetic beads were treated with biotinylated small molecule ligands at room temperature for 30 minutes to produce affinity resin for kinase analysis;
3. Ligand beads were blocked with excess biotin and washed with buffer (1% bovine serum albumin, […]) to remove unbound ligand and non-specifically bound ligand;
4. The assembly of kinase and ligand and affinity beads, and the binding reaction between the compound and the three were performed in buffer (20% blocking buffer, 0.17x phosphate buffer, 0.05% Tween […]);
5. The test compounds were dissolved in dimethyl sulfoxide;
6. All test compounds were dissolved in DMSO, and then directly diluted […]
7. The solution was placed in a 384-well polypropylene plate, wherein the volume of each well was 0.02 mL;
8. The plate was shaked for an hour at room temperature;
9. The plate was washed with buffer (1× PBS, 0.05% Tween 20);
10. The affinity beads were resuspended in buffer (1× PBS, 0.05% Tween […] non-biotin affinity ligand) and incubated at room temperature for 30 minutes;
11. The kinase concentration in the eluate was deteced by qPCR.

[6] = Pharmacokinetic evaluation in plasma after IV and PO administration; assay type: in vivo; conditions: female Balb/c mice; for MRT inf: read-out: MRT0-inf; for MRT last: read-out: MRT0-last
Protocol: Experimental Embodiment 3: Pharmacokinetic Evaluation
The test compound was mixed with […] (Cremophor EL), vortexed and sonicated to prepare a 1 mg/mL near-clear solution, which was filtered with a microporous filter membrane for future use. Female Balb/c mice of 18 to 20 grams were selected and the solution of the test compound was administered intravenously at a dose of 1 or 2 mg/kg. The test compound was mixed with an aqueous solution of 1% Tween 80, 9% polyethylene glycol 400, and 90% water, vortexed and sonicated to prepare 1 mg/mL near-clear solution, which was filtered with a microporous filter membrane for future use.
Female Balb/c mice of 18 to 20 grams were selected, and the solution of the test compound was orally administered at a dose of 2 or 10 mg/kg. The whole blood was collected at a certain time, and prepared into plasma. The drug concentration was analyzed by LC-MS/MS, and the pharmacokinetic parameters were calculated using Phoenix WinNonlin software (Pharsight Corporation, USA).

[7] = test system: human breast cancer MCF-7 cell subcutaneous xenograft tumor; assay: In vivo pharmacodynamic study, MCF-7 subcutaneous xenograft tumor; set-up: species or system BALB/c nude mouse; conditions: 15 mg/kg
Excerpt: Experimental Embodiment 4: In Vivo Pharmacodynamic Study on BALB/c Nude Mouse Model of Human Breast Cancer MCF-7 Cell Subcutaneous Xenograft Tumor
Experimental objective: To study the efficacy of the test compounds on human breast cancer MCF-7 cell subcutaneous xenograft tumor in BALB/c nude mouse model.
Experimental animals: Female BALB/c nude mice, 6-8 weeks old, weighing 18-22 grams; supplier: Shanghai Xipuer-Bikai Experimental Animal Co., Ltd.
Human breast cancer MCF-7 cells (ECACC, article number: 86012803) were subjected to in vitro monolayer culture under the conditions of EMEM (EBSS)+2 mM […]+1% Non Essential Amino Acids (NEAA) medium containing 10% fetal bovine serum, 100 U/mL penicillin and 100 μg/mL streptomycin, and 37° C., 5% CO2incubator. Conventional digestion treatment was carried out with trypsin-EDTA twice a week for cell passage. When the cell saturation was 80%-90%, and the quantity reached the requirement, the cells were collected, counted and inoculated.
Estrogen tablets (0.18 mg) were inoculated into the left back of each mouse three days before cell inoculation, 0.2 mL (1×10^7) MCF-7 cells (added with matrigel, volume ratio of 1:1) were subcutaneously inoculated into the right back of each mouse. When the average volume of tumor reached 142 mm^3, the mice were divided into groups and began to be administrated.
The test compounds were prepared into clear solutions of 0.75 mg/mL, 1.5 mg/mL and 3 mg/mL. The vehicles were 5% DMSO+30% polyethylene glycol 300+65% water.
The experimental indexes were used for investigating whether the growth of the tumors had been inhibited, delayed or cured. The diameters of the tumors were measured with vernier calipers twice a week. The calculation formula of the tumor volume was: V=0.5a×b^2, wherein a and b represent the long and short diameters of the tumor respectively.
The antitumor efficacy of the compound was evaluated by TGI (%) or relative tumor proliferation rate T/C (%). TGI (%) reflects the inhibition rate of the tumor growth. Calculation of TGI (%): TGI (%)=[1−(average tumor volume at the end of administration in the treatment group−average tumor volume at the beginning of administration in the treatment group)/(average tumor volume at the end of treatment in the vehicle control group−average tumor volume at the beginning of treatment in the vehicle control group)]×[…].
Relative tumor proliferation rate T/C (%): The calculation formula was as follows: T/C %=TRTV/CRTV at the beginning of the treatment (TRTV: treatment group RTV; CRTV: negative control group RTV). The relative tumor volume (RTV) was calculated according to the results of tumor measurement. The calculation formula was RTV=Vt/V0, wherein V0 is the average tumor volume measured during administration of the groups (i.e. d0), and Vt is the average tumor volume during a certain measurement, the TRTV and CRTV were taken on the same day.
Statistical analysis included the mean and standard error (SEM) of tumor volume at each time point in each group. […] The comparison between two groups was analyzed by T-test, and the comparison between three or more groups was analyzed by one-way ANOVA.

What does the source list for `CNC(=O)c1cccc(-c2ccc3c(N4CCOC[C@@H]4C)nc(N4CCOC5(CC5)C4)nc3n2)c1` [Embodiment 1]?
IC50 [1]: 155 nM; IC50 [2]: 485 nM; IC50 [3]: 313 nM; IC50 [4]: 61 nM; Kd [5]: 0.85 nM; AUCExtra ([6]; IV 2 mg/kg): 0.124%; AUMCExtra ([6]; IV 2 mg/kg): 1.27%; Tlast ([6]; IV 2 mg/kg): 12 h; AUCExtra ([6]; PO 10 mg/kg): 0.174%; AUMCExtra ([6]; PO 10 mg/kg): 1.83%; Tlast ([6]; PO 10 mg/kg): 24.0 h; AUC(0-inf) ([6]; mouse, IV 2 mg/kg): 7.42 µM·h; AUC(0-t) ([6]; mouse, IV 2 mg/kg): 7.41 µM·h; C0 ([6]; mouse, IV 2 mg/kg): 7.2 µM; clearance ([6]; mouse, IV 2 mg/kg): 9.45 mL/min/kg; half-life ([6]; mouse, IV 2 mg/kg): 1.65 h; MRT inf ([6]; mouse, IV 2 mg/kg): 1.38 h; MRT last ([6]; mouse, IV 2 mg/kg): 1.2 h; Vd ([6]; mouse, IV 2 mg/kg, read-out: Vdss): 0.793 L/kg; AUC(0-inf) ([6]; mouse, PO 10 mg/kg): 35 µM·h; AUC(0-t) ([6]; mouse, PO 10 mg/kg): 35 µM·h; Cmax ([6]; mouse, PO 10 mg/kg): 15.1 µM; Tmax ([6]; mouse, PO 10 mg/kg): 0.25 h; bioavailability ([6]; mouse, PO 10 mg/kg): 94.4%; half-life ([6]; mouse, PO 10 mg/kg): 3.33 h; MRT inf ([6]; mouse, PO 10 mg/kg): 2.74 h; MRT last ([6]; mouse, PO 10 mg/kg): 2.69 h

With `CNC(=O)c1cccc(-c2ccc3c(N4CCOC[C@@H]4C)nc(N4CC5(CCC5)OC[C@@H]4C)nc3n2)c1` [Embodiment 30] as the compound, how does the IC50 [2] read?
The IC50 was 442 nM.

And the IC50 [3]?
The IC50 was 158 nM.

What about the Kd [5] of the same compound?
Its Kd is 0.44 nM.

Which IC50 [1] does the source give for `C[C@H]1COCCN1c1nc(N2CCOC3(CCC3)C2)nc2nc(-c3cccc(C(N)=O)c3)ccc12` [Embodiment 44] here?
The IC50 was 171 nM.

What about the IC50 [4] of the same compound?
The IC50 was 89 nM.

And the T/C [7]?
Its T/C is 50.58%.

And the TGI [7]?
Its TGI is 65.23%.

And the “RTV (27th day)” value ([7]; 27th day)?
The value was 2.11 ± 0.39.

And the “Tumor volume (27th day)” value ([7]; 27th day, mean ± SEM)?
Its value is 298 ± 55 mm^3.

And the “Tumor volume (day 0)” value ([7]; day 0, mean ± SEM)?
The value was 143 ± 13 mm^3.

What about the Kd [5] of the same compound?
Its Kd is 0.24 nM.
